From patent publication US20120094998A1, “Oligomer-Protein Tyrosine Kinase Inhibitor Conjugates” (Nektar Therapeutics, priority 2009, published 2012)

Experiments:
Type in all cases: biochemical
SRC = SRC (Homo sapiens, UniProt P12931); assay: Activity against various protein tyrosine kinases: SRC; conditions: for inhibition at 0.01 µM: 10 nM
Protocol: (§1) Using techniques know those of ordinary skill in the art, compounds were tested for activity against various protein tyrosine kinases.

MAPKAPK3 = MAPKAPK3 (Homo sapiens, UniProt Q16644); assay: Activity against various protein tyrosine kinases: MAPKAPK3; conditions: for inhibition at 0.01 µM: 10 nM
Protocol: as §1

GSK3b = GSK3b (Homo sapiens, UniProt P49841); assay: Activity against various protein tyrosine kinases: GSK3b; conditions: for inhibition at 0.01 µM: 10 nM
GSK3b, sequence (P49841 whole entry, species assumed): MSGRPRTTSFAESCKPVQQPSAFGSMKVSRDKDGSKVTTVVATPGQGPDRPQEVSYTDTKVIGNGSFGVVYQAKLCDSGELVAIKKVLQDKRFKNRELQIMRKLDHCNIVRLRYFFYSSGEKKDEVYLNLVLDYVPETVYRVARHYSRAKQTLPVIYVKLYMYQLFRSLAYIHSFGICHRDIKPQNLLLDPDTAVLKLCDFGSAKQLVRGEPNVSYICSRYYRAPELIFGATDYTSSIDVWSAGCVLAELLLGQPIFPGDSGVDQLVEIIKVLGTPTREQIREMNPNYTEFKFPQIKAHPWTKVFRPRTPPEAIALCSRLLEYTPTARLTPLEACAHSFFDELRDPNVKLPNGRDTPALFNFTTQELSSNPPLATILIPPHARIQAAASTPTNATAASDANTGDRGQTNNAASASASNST
Protocol: as §1

AurA = target: T1, AurA (Homo sapiens, UniProt O14965); assay: Activity against various protein tyrosine kinases: AurA; conditions: for inhibition at 0.01 µM: 10 nM
T1 sequence (O14965 1-403): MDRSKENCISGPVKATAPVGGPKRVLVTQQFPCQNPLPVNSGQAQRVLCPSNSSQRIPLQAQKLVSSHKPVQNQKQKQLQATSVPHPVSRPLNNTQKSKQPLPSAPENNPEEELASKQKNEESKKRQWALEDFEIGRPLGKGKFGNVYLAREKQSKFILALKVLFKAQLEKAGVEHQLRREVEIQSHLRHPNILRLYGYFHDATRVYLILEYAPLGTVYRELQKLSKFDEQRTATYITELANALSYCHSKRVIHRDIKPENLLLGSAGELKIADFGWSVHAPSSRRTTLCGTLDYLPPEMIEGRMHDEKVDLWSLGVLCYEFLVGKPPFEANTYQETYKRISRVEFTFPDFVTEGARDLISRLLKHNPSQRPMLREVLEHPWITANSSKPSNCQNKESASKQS
Protocol: as §1

FGFR4 = FGFR4 (Homo sapiens, UniProt P22455); assay: Activity against various protein tyrosine kinases: FGFR4; conditions: for inhibition at 0.01 µM: 10 nM
Protocol: as §1

Erk1 = Erk1 (Homo sapiens, UniProt P27361); assay: Activity against various protein tyrosine kinases: Erk1; conditions: for inhibition at 0.01 µM: 10 nM
Erk1, sequence (P27361 whole entry, species assumed): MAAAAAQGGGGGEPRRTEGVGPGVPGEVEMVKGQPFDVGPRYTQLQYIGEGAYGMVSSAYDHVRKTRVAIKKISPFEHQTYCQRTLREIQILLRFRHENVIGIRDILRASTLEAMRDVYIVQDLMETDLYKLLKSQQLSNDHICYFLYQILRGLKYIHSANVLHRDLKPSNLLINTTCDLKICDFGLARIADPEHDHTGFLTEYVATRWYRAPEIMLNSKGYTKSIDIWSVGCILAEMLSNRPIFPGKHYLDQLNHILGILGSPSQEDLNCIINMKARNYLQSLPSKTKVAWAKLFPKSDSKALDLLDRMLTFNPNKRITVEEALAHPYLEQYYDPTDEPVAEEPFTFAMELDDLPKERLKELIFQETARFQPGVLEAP
Protocol: as §1

RSK1 = RSK1 (Homo sapiens, UniProt Q15418); assay: Activity against various protein tyrosine kinases: RSK1; conditions: for inhibition at 0.01 µM: 10 nM
RSK1, sequence (Q15418 whole entry, species assumed): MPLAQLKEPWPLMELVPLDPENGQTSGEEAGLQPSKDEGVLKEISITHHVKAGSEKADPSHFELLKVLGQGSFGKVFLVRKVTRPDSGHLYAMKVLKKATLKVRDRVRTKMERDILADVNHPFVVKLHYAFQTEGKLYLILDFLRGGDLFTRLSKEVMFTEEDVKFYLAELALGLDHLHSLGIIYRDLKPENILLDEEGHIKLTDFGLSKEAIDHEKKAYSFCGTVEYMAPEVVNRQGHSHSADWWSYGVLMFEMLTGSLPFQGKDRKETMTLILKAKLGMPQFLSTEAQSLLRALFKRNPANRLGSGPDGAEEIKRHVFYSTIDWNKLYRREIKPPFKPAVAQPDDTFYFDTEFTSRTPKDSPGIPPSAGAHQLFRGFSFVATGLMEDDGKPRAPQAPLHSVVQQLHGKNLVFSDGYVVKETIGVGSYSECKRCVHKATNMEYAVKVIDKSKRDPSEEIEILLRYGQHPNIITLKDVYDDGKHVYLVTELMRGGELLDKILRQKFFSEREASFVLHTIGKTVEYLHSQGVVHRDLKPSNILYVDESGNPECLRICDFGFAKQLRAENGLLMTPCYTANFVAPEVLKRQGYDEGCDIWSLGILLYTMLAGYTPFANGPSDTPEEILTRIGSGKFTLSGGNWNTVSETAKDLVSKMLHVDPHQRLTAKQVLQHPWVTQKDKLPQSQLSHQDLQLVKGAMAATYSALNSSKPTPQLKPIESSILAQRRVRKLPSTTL
Protocol: as §1

PDGFR_alpha = PDGFR_alpha (Homo sapiens, UniProt P16234); assay: Activity against various protein tyrosine kinases: PDGFR_alpha; conditions: for inhibition at 0.01 µM: 10 nM
Protocol: as §1

MSK1 = MSK1 (Homo sapiens, UniProt O75582); assay: Activity against various protein tyrosine kinases: MSK1; conditions: for inhibition at 0.01 µM: 10 nM
MSK1, sequence (O75582 whole entry, species assumed): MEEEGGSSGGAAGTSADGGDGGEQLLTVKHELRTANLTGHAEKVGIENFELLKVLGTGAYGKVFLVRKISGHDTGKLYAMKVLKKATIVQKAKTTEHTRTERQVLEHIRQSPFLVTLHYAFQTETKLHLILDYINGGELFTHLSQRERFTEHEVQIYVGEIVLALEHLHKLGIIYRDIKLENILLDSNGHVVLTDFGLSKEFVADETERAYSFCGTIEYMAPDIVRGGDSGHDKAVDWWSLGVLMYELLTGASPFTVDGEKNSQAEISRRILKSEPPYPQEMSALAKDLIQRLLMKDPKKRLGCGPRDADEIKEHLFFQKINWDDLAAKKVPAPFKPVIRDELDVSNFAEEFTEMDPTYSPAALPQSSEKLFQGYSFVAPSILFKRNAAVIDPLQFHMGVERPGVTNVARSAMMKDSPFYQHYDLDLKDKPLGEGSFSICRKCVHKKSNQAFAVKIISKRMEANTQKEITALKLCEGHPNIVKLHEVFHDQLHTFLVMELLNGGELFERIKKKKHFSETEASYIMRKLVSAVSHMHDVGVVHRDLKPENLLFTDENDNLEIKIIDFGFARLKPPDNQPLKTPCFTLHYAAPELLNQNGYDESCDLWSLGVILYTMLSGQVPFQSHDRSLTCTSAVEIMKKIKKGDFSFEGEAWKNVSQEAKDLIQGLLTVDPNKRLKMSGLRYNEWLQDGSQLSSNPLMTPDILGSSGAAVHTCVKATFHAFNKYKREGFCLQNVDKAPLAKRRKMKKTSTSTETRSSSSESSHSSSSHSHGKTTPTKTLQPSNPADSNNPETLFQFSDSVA
Protocol: as §1

FYN = FYN (Homo sapiens, UniProt P06241); assay: Activity against various protein tyrosine kinases: FYN; conditions: for inhibition at 0.01 µM: 10 nM
FYN, sequence (P06241 whole entry, species assumed): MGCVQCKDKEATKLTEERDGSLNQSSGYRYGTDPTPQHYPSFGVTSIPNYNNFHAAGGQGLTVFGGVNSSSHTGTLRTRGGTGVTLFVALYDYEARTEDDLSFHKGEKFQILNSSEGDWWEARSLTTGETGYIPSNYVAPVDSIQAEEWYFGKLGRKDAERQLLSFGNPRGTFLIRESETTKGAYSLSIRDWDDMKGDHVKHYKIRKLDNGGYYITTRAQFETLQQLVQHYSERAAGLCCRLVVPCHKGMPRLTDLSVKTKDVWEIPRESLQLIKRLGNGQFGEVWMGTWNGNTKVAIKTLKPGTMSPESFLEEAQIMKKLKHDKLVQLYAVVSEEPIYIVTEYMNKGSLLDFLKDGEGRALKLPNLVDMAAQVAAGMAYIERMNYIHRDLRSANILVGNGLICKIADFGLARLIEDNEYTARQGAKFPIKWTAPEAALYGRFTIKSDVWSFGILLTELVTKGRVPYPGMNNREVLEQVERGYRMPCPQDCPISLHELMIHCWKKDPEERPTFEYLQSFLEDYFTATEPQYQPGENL
Protocol: as §1

PRAK = target: T2, PRAK (Homo sapiens, UniProt Q8IW41); assay: Activity against various protein tyrosine kinases: PRAK; conditions: for inhibition at 0.01 µM: 10 nM
T2 sequence (Q8IW41 1-473): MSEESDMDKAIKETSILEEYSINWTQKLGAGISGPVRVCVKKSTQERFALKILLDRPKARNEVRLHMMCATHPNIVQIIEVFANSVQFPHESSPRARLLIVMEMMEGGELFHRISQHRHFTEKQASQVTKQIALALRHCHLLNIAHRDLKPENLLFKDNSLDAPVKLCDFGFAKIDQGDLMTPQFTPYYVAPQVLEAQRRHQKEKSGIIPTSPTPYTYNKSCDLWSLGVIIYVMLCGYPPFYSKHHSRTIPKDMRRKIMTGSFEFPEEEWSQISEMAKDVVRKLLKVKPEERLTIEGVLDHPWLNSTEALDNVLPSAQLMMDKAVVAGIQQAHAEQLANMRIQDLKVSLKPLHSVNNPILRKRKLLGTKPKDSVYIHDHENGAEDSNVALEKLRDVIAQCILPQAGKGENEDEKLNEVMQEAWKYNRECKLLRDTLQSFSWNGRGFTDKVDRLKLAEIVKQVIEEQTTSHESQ
Protocol: as §1

EPHA2 = EPHA2 (Homo sapiens, UniProt P29317); assay: Activity against various protein tyrosine kinases: EPHA2; conditions: for inhibition at 0.01 µM: 10 nM
EPHA2, sequence (P29317 24-976, species assumed): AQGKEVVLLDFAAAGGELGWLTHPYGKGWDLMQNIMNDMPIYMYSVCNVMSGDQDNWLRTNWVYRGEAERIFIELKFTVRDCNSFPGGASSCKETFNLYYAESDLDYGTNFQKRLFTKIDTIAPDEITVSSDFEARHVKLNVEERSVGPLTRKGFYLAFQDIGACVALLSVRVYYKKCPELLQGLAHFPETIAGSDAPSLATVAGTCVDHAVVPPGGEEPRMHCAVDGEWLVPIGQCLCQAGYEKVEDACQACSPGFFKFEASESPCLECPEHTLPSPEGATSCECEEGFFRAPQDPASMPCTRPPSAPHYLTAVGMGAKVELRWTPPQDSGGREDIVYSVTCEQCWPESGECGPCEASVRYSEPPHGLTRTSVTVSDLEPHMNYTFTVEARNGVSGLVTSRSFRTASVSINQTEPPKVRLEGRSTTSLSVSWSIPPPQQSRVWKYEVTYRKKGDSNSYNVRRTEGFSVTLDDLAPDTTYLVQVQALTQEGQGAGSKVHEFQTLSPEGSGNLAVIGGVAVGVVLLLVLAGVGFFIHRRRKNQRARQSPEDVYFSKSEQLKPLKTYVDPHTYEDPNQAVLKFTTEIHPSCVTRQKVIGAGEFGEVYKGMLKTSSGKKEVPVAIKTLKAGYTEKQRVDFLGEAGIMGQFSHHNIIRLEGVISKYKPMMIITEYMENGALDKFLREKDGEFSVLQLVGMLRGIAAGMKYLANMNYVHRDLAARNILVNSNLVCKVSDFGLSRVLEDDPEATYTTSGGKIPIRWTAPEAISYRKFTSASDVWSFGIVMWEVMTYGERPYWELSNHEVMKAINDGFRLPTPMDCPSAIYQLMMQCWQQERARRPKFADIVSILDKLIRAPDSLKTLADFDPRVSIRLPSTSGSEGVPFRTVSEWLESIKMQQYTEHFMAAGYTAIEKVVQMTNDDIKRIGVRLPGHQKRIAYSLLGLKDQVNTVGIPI
Protocol: as §1

p38-beta2 = p38-beta2 (Homo sapiens, UniProt Q15759); assay: Activity against various protein tyrosine kinases: p38-beta2; conditions: for inhibition at 0.01 µM: 10 nM
p38-beta2, sequence (Q15759 whole entry): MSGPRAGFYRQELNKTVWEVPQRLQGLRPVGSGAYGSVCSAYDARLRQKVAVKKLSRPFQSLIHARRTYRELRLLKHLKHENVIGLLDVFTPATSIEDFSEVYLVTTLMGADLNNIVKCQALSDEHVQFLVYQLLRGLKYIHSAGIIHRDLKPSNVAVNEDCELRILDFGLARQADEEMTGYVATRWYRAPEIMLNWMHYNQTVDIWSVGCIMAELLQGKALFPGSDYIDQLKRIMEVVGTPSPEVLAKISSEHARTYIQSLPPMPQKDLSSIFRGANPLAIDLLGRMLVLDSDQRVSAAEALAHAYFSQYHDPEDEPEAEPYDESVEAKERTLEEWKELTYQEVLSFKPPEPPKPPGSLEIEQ
Protocol: as §1

p38-delta = target: T3, p38-delta (Homo sapiens, UniProt O15264); assay: Activity against various protein tyrosine kinases: p38-delta; conditions: for inhibition at 0.01 µM: 10 nM
T3 sequence (O15264 1-365): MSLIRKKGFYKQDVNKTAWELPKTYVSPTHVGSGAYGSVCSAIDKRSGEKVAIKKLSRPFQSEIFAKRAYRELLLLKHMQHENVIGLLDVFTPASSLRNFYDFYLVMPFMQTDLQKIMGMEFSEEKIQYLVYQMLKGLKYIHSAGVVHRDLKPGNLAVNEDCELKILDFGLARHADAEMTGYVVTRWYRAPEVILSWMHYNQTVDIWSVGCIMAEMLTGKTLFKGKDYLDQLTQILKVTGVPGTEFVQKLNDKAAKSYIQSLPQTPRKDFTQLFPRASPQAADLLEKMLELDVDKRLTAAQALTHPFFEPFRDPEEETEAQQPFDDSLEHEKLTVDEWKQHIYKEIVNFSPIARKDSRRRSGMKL
Protocol: as §1

CHK1 = target: T4, CHK1 (Homo sapiens, UniProt O14757); assay: Activity against various protein tyrosine kinases: CHK1; conditions: for inhibition at 0.01 µM: 10 nM
T4 sequence (O14757 1-476): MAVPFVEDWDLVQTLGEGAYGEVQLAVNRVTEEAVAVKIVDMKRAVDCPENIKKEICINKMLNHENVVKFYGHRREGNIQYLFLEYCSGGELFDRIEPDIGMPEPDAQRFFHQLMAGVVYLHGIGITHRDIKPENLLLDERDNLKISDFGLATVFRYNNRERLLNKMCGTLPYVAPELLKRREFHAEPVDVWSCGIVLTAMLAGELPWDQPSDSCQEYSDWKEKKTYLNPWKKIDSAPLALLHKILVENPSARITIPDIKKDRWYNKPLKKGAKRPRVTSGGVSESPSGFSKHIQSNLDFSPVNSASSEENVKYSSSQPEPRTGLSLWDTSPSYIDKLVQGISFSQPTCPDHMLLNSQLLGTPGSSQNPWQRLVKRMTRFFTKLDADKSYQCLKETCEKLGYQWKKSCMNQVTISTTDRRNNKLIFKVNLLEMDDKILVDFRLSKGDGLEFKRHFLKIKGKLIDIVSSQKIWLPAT
Protocol: as §1

PKA = assay: Activity against various protein tyrosine kinases: PKA
Protocol: as §1

SRC, sequence (P12931 whole entry, species assumed): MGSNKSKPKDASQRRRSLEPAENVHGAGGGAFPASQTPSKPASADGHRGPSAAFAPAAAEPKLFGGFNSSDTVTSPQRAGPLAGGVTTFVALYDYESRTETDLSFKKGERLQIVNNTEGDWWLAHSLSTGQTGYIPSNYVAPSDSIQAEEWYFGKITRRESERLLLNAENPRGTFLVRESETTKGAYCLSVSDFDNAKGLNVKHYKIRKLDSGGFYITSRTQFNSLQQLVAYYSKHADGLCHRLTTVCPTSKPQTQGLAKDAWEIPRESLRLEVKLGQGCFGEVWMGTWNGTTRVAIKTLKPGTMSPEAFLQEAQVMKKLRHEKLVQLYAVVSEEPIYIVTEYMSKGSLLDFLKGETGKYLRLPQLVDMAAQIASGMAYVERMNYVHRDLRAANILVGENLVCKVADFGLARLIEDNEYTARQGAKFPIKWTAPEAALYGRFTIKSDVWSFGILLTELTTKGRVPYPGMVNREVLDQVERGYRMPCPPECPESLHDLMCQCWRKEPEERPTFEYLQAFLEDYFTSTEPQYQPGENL

Structure (SMILES)	inhibition at 0.01 µM (SRC)	inhibition at 1 µM (SRC)	inhibition at 0.01 µM (MAPKAPK3)	inhibition at 1 µM (MAPKAPK3)	inhibition at 0.01 µM (GSK3b)	inhibition at 1 µM (GSK3b)	inhibition at 0.01 µM (AurA)	inhibition at 1 µM (AurA)	inhibition at 0.01 µM (FGFR4)	inhibition at 1 µM (FGFR4)	inhibition at 0.01 µM (Erk1)	inhibition at 1 µM (Erk1)	inhibition at 0.01 µM (RSK1)	inhibition at 1 µM (RSK1)	inhibition at 0.01 µM (PDGFR_alpha)	inhibition at 1 µM (MSK1)	inhibition at 0.01 µM (PRAK)	inhibition at 0.01 µM (p38-beta2)	inhibition at 1 µM (p38-beta2)	inhibition at 0.01 µM (CHK1)	other results
COCCOCCOCCOCCOCCOCCOCCNC(=O)OCCN1CCN(c2cc(Nc3ncc(C(=O)Nc4c(C)cccc4Cl)s3)nc(C)n2)CC1 [mPEG7-NHCOO-Dasatinib]	98%	98%	1%	0%	3%	2%	3%	28%	0%	2%	3%	4%	0%	4%	46%	5%	8%	0%	35%	10%	inhibition at 1 µM (PDGFR_alpha): 98%; inhibition at 0.01 µM (MSK1): 3%; inhibition at 0.01 µM (FYN): 98%; inhibition at 1 µM (FYN): 98%; inhibition at 1 µM (PRAK): 0%; inhibition at 0.01 µM (EPHA2): 36%; inhibition at 1 µM (EPHA2): 101%; inhibition at 0.01 µM (p38-delta): 0%; inhibition at 1 µM (p38-delta): 0%; inhibition at 1 µM (CHK1): 8%; % Inhibition at 10 nM (PKA): 0%; % Inhibition at 1 μM (PKA): 2%
Cc1nc(Nc2ncc(C(=O)Nc3c(C)cccc3Cl)s2)cc(N2CCN(CCO)CC2)n1 [Dasatinib, reference compound]	–	–	–	–	7%	–	-2%	–	-2%	–	–	–	–	–	10%	3%	-2%	-2%	34%	3%	–
COCCOCCOCCNC(=O)OCCN1CCN(c2cc(Nc3ncc(C(=O)Nc4c(C)cccc4Cl)s3)nc(C)n2)CC1 [mPEG3-NHCOO-Dasatinib]	99%	99%	5%	3%	4%	1%	-7%	19%	3%	6%	3%	2%	2%	0%	58%	1%	6%	3%	48%	-2%	inhibition at 1 µM (PDGFR_alpha): 99%; inhibition at 0.01 µM (MSK1): 2%; inhibition at 0.01 µM (FYN): 98%; inhibition at 1 µM (FYN): 99%; inhibition at 1 µM (PRAK): 4%; inhibition at 0.01 µM (EPHA2): 40%; inhibition at 1 µM (EPHA2): 100%; inhibition at 0.01 µM (p38-delta): 0%; inhibition at 1 µM (p38-delta): 2%; inhibition at 1 µM (CHK1): 0%; % Inhibition at 10 nM (PKA): 3%; % Inhibition at 1 μM (PKA): 0%
